From patent publication US7645882B2, “Inhibitor of protein modification products formation” (priority 2003, dated 2010) come the findings set out here.

The subject of one data set is GRP78. Kind of data set: ER stress inducing molecule expression in RIN-5F cells, western blot, GRP78. It is filed as cell-based, rat. Conditions: tunicamycin added, 8 hours. How it is done: (§1) Rat pancreatic β cell line (RIN-5F) was seeded in 6 well culture plate to 1.0×10^5 cells/well, and after 24 hours, TM-2002 in DMSO (200 mM, 50 mM) were added to be final concentration 200 μM, 50 μM. After another 1 hour, 0.2 μl of tunicamycin (Sigma) in methanol(1 mg/ml) was added. After culturing 8 hours, the cells were washed 2 ml of PBS(+) twice, and the cells were dissolved in 100 μl of lysate (50 mM Tris-HCl (pH 7.5), 150 mM NaCl, 100 mM NaF, 100 mM sodium phosphate (pH 7.4), 2 mM Na3VO4, 0.1% protease inhibitor cocktail (Sigma), 1% Triton X-100). To remove the insoluble fraction of this lysate, centrifuged at 12,000×g for 10 minutes and obtained the supernatant to give cell extract. The extract was quantified its protein concentration using DC protein assay kit (Bio Rad), and each samples (1 μg) was electrophoresed by SDS-PAGE and transferred to PVDF membrane. The membrane was blocked with 5% skimmed milk/0.1% Tween20-TBS for 1 hour at room temperature, and reacted with anti-ORP150 antibody in 5% skimmed milk/0.1% Tween20-TBS (2000 folds: specific antibody), anti-GRP78 antibody (Santa Cruz) in 5% skimmed milk/0.1% Tween20-TBS (100 folds) and anti-actin antibody (Sigma) in 5% skimmed milk/0.1% Tween20-TBS (200 folds) for 2 hours. […] The detected signal was analyzed by Lane analyzer (ATTO) and calculated the signal strength. […]

For the next data set, the system named is ORP150. The experiment in a line: ER stress inducing molecule expression in RIN-5F cells, western blot, ORP150. It counts as cell-based, rat. The settings on record: tunicamycin added, 8 hours. How it is done: as §1
Background: A western blot detects proteins with antibodies after separation by electrophoresis.

A further data set deals with normal rat (WKY rat). The experiment in a line: Vitamin B6 deficiency in normal rat. It is filed as in vivo. Conditions: 13 mg/kg/rat/once twice daily by sonde, 20 weeks. The procedure:
TM-2002 was administered to normal rat (WKY rat: Japan SLC) to examine the presence of vitamin B6 deficiency. Aminoguanidine, which is known its vitamin B6 capturing effect was used as control. Each group involves 10 rats. 13 mg/kg/rat/once of TM-2002 or aminoguanidine suspended in carboxymethyl cellulose (0.5%) was respectively administered coercively using sonde twice a daily. Administration term was 20 weeks. The conventional diet (CRF1: Oriental yeast) was used.
After 20 weeks, the appearance of WKY rat was observed.

The test system of a further data set is pentosidine. Kind of data set: Pentosidine production inhibiting effect with BSA and arabinose. It is filed as biochemical. The settings on record: BSA and arabinose instead of plasma. How it is done: Fresh heparinized plasma samples were obtained after informed consent from hemodialysis patients prior to the dialysis session, and filtrated and sterilized. To the plasma (450 μL), there was added the solution of TM-2002 in dimethylsurphoxide (50 μL) (final concentration: 0.8, 2.0, 5.0 mM) incubated at 37° C. for one week. Then, the amount of pentosidine was measured.
Measurement of the amount of pentosidine was made as follows: to each incubated sample (50 μL) was added an equal volume of 10% trichloroacetic acid, followed by centrifugation at 5000 g for 5 minutes; after removal of the supernatant, the pellet was washed by 5% trichloroacetic acid (300 μL); the pellet was dried under reduced pressure and then subjected to hydrolysis in 6N HCl solution (100 μL) at 110° C. under nitrogen atmosphere for 16 hours; to the hydrolysate, 5N NaOH (100 μL) and 0.5 M phosphate buffer (pH 7.4) (200 μL) were added, followed by filtration through a porefilter with a pore size of 0.5 μm and dilution with PBS. The concentration of free pentosidine was determined by reversed-phase HPLC using a fluorescence detector (Miyata, T. et al.: Proc. Natl. Acad. Sci. USA, Vol. 93, p. 2353-2358, 1996). The effluent was monitored at 335/385 nm of excitation/emission wavelength. Synthetic pentosidine was used as the standard. The detection limit of pentosidine was 0.1 pmol/mg protein.
The plasma from patients was substituted to BSA and arabinose, and the pentosidine production inhibiting effect of another compounds (I) or (II) was measured in the same manner as [Test Examination 1]. Therein, “-” means that the examination was not carried out.

Data set [1] is described as follows: Solubility and stability of TM-2002 injectable lyophilized formulation. It counts as physicochemical. The settings on record: room temperature, at 10 hours. How it is done: L-cystein hydrochloride (160 mg) was added to 80 ml of purified water, stirred and solved. The solution was adjust at pH 6.7 with 1N NaOH aqueous solution. Then 1 g of TM-2002 hydrochloride was added, stirred and solved, and the solution diluted with purified water to 100 ml with measuring flask. Such solution was divided into vial container of 50 ml by 6.3 ml each, frozen immediately with dry ice, and then stored at −80° C. to freeze completely. This was subjected to lyophilized for 3 days using lyophilizer. After lyophilizing, covered by rubber cap and sealed by aluminum cap using fastener, TM-2002 injectable lyophilized formulation was prepared.
To TM-2002 injectable lyophilized formulation prepared above, there was added 20 ml of purified water per 1 vial. […] TLC (Kiezel gel 60F254/developing solvent: CHCl3:MeOH=9:1/detection:UV=254 nm) was carried out to examine the change of ingredient. […] The result of TLC is represented in FIG. 16. When the solution was further diluted with saline, the stability was as same. […] The formulation is suitable for injectable lyophilized formulation which is prepared before use, and stable and usable.

The nature of data set [2]: Examination of stabilizing agent in TM-2002 hydrochloride solution. It counts as physicochemical. From the text: Several kind of stabilizing agent was usually used to stabilize the medicament and the effective manner is addition of antioxidant. Particularly, the material having lower oxidation-reduction potential is effective to stabilize highly oxidized compound. Accordingly, for sodium acid sulfite (NaHSO3) and L-cystein ([…]), which are usually used in injection, the stability was examined by adding such materials to TM-2002 hydrochloride aqueous solution.
The solving state of TM-2002 hydrochloride solution added sodium acid sulfite was examined in following manner; 1 ml of purified water, sodium acid sulfite (0.5 mg) and sodium acid sulfite (1 mg) solution was prepared respectively; to these solutions, there was added 63 mg of TM-2002 hydrochloride, stirred and solved; the solutions allowed to warm to room temperature to observe the solving state. […] Accordingly, the stability of TM-2002 itself will increase by using hydrochloride.
The solving state of TM-2002 hydrochloride solution added L-cystein hydrochloride was examined in following manner; 1 mg and 2 mg of L-cystein hydrochloride were dissolved in 1 ml of purified water respectively; pH was adjusted to 6.5; to these solutions, there was added 63 mg of TM-2002 hydrochloride, stirred and solved; the solutions allowed to warm to room temperature to observe the solving state. […] In addition, the degradability was observed by thin layer chromatography (TLC/Silica-gel 60F254 (Merck Japan)/developing solvent: chloroform:methanol=9:1/detection:UV=254 nm). […] Accordingly, the present invention provides lyophilized formulation comprising L-cystein by treating TM-2002 hydrochloride solution at low temperature and lyophilizing.

Where [3] appears, read: 63 mg in 1 ml purified water only, pH 2 to 2.5, after 24 hours.

With tunicamycin [reference compound], the “GRP78 expression compared to control sample” value in the data set on GRP78 worked out at 1.46 fords. Further, the “ORP150 expression compared to control sample” value in the data set with ORP150 worked out at 1.88 folds.
For the compound `N=C(N)NN` [aminoguanidine], in the data set on normal rat (WKY rat), the “condition caused by vitamin B6 deficiency (appearance)” value is “skin inflammation, epilepsy and convulsion caused by cerebral disorder were observed”.
`Cc1ncc2c(c1O)C(c1c(C)nn(-c3ccccc3)c1O)OC2.Cl` (centres unmarked) [compound 69, 1-(5-hydroxy-3-methyl-1-phenyl-1H-pyrazol-4-yl)-6-methyl-1,3-dihydro-furo[3,4-c]pyridin-7-ol (hydrochloric acid salt)]: the “Pentosidine production rate in 5 mM of medicament (%)” value in the data set on pentosidine was 2.94%. In addition, the “decomposition products (TLC)” value in data set [1] is “decomposition products were observed”. For the same compound, in data set [2] (setting [3]), the TM-2002 degradation entry is reported as “significant suppress of TM-2002 degradation was observed”. In addition, the solving state result in data set [2] (setting [3]) was “no change was observed in its solving state”; in data set [2] (63 mg in 1 ml with 0.5 mg or 1 mg sodium acid sulfite, room temperature, after 24 hours), “remarkable precipitates were observed”; in data set [2] (63 mg in 1 ml with 1 mg or 2 mg L-cystein hydrochloride, after 24 hours), “no change was observed in solving state”; in data set [2] (63 mg in 1 ml with 1 mg or 2 mg L-cystein hydrochloride, pH adjusted to 6.5, room temperature), “no precipitates and deposits was observed”; in data set [2] (with sodium sulfite or sodium pyrosulfite instead of sodium acid sulfite), “crystal precipitate was deposited”. For the same compound, in data set [2] (by addition of L-cystein, room temperature), the “stabilization (TLC)” value is on record as “significantly stabilized”. The “degradability (TLC)” value in data set [2] (left over 24 hours at room temperature) is listed as “degraded very slowly”. Further, the “stability of the solution” value in data set [2] (solution with L-cystein hydrochloride, preservation at −20° C., one week) was “stable after one week”.
